From patent US12070505B2, “Targeted peptide-drug conjugates” (priority 2021, dated 2024)
Converted amounts (≈) assume the structure as drawn. “And” between values parts separate entries of the source, which are not always exact repeats. Equal values may be shown once.

Assays:
SK-OV-3 cells [1] = assay: MTS cytotoxicity assay of [(WR)8WKβA]-Dox, SK-OV-3; conditions: 5 μM, 72 h
Procedure: (§1) Cytotoxic activity of the synthesized conjugate and noncovalent mixtures of cyclic [WR]9+Dox was determined in SK-OV-3, MDA-MB-231, MCF-7, MES-SA/MX2, and H9C2 cells. […] An appropriate growth medium was used for each cell line (for SK-OV-3: McCoy's […] with L-glutamine containing fetal bovine serum (FBS) (10%) and penicillin or streptomycin (1%); for MDA-MB-231 and MCF-7 cells: DMEM/F12 (1:1) (1×) with L-Glutamine and 15 mM HEPES containing FBS (10%) and penicillin or streptomycin (1%), and for MES-SA/MX2 and H9C2 cells: Minimum Essential Medium Eagle with Earle's salts and sodium bicarbonate, without L-glutamine containing FBS (10%), and penicillin or streptomycin (1%)). The cells were seeded in a complete growth medium 24 h prior to the experiment. […] The incubation was continued for 3 h.

MCF-7 cells = assay: MTS cytotoxicity assay of [(WR)8WKβA]-Dox, MCF-7; format: cell-based; conditions: 5 μM
Procedure: as §1

H9C2 cells [2] = assay: Fluorescence/confocal microscopy uptake in heart cells (Example 1); format: cell-based, rat; conditions: 5 μM
Procedure: Fluorescence and Confocal Microscopy. CCRF-CEM, SKOV-3, and H9C2 cells were seeded with EMEM media overnight on coverslips in six-well plates. Then the medium was removed and washed with opti-MEM. The cells were treated with Dox and the peptide-Dox conjugate (5 μM) in opti-MEM for different time intervals (3, 24, and 72 h) at 37° C. After 3 h incubation, the media containing the compound were removed, followed by washing with PBS three times. Then coverslips were placed on a drop of mounting medium on a microscope slide with the cell-attached side facing down. Fluorescence microscopy and laser scanning confocal microscopy were carried out using a Keyence Microscope System and Nikon AIR system, respectively. The cells were imaged using rhodamine and phase contrast channels.
In a separate experiment, confocal microscopy was used as follows. (i) Internalization of [R5K]W7A-Dox conjugate vs. free Dox was determined in Dox-resistant MDA-MB-231 and ME5-SA/MX2 cells as compared to the wild-type MDA-MB-231 cells. The cellular internalization was evaluated in Dox-sensitive and -resistant cells to study the effect of overexpression of the MDR efflux proteins on the Dox internalization by the peptide conjugates. […] (ii) Internalization of Dox and [R5K]W7A-Dox was determined into normal heart muscle cells. […]

H9C2 cells [3] = assay: Confocal microscopy uptake in H9C2 (Example 2); format: cell-based, rat; conditions: 5 μM, 24 h
Procedure: Confocal Microscopy. MDA-MB-231, SK-OV-3, MES-SA/MX2, and H9C2 cells (7×10^4 cells/well) were seeded with a medium on a coverslip 24 h prior to the experiment in six well plates. After 24 h, the medium was changed with opti-MEM. The cells were treated with Dox and peptide-Dox conjugate (5 μM) in opti-MEM for 24 h. After 24 h incubation, the media were removed, and cells were washed three times with PBS in each well. Then, the cells were fixed with 3.7% formaldehyde for 10 min, followed by washing three times with PBS (pH 7.6) for 5 min. DAPI (40 μL) for staining the nuclei was placed on a microscope slide, and it was covered with the coverslip with the cell-attached side facing down. The slides were left standing horizontally in a dark place with airflow to allow faster drying. The cells were photographed using Nikon Instruments A1 Confocal Laser Microscope Series and NIS-Elements software (AR 4.30.02, 64 bit). The scan mode was selected as Galvano. The magnification and resolution were set at 40× and 1024, respectively.

MDA-MB-231 cells = conditions: naïve MDA231 cells, previous study (Aliabadi et al, 2013); cited from earlier work
LLC-PK1 kidney cells = assay: Cytotoxicity, MTS assay, normal kidney cells; conditions: 5 μM
Procedure: In Vitro Cytotoxicity Assay of Peptide-Drug Conjugates. The cytotoxicity of the compounds was determined by using human leukemia cell line (CCRF-CEM), human ovarian adenocarcinoma cells (SKOV-3) cells, kidney cell line (LLC-PK1), gastric adenocarcinoma cells (AGS), and heart/myocardium cells (H9C2) to evaluate the toxicity of the generated peptides according to a previously reported procedure (Rahman, A.; et al. Proc. Am. Assoc. Cancer Res. 26:2295-2299, 1985, which is incorporated herein by reference). In brief, CCRF-CEM cells were seeded at 50,000 cells in 0.1 mL per well in 98-well plates. In the case of other cell lines, the cells were seeded at 5,000 cells (0.1 mL per well in 96-well plates). The cells were seeded in medium (RPMI-1640 containing FBS (10%)), 24 h prior to the experiment. The compounds at different concentrations (10-50 μM) were added to each well in triplicate and incubated for 24 and 72 h at 37° C. in a humidified atmosphere of 5% CO2. Dox (5 μM) was used as a positive control, while water and cell culture medium were used as negative controls. The compounds were dissolved in water; water was used as a negative control to normalize the data. After the incubation period, MTS reagent (20 μL) was added to each well. The incubation was continued for 2 h. Cell viability was then determined by determination of the fluorescence intensity at 490 nm using a SpectraMax M2 microplate spectrophotometer.

SK-OV-3 cells [4] = assay: Cytotoxicity, MTS cell viability assay, SK-OV-3 (Example 1)
Procedure: In Vitro Cytotoxicity Assay of Peptide-Drug Conjugates. […] In brief, CCRF-CEM cells were seeded at 50,000 cells in 0.1 mL per well in 98-well plates. In the case of other cell lines, the cells were seeded at 5,000 cells (0.1 mL per well in 96-well plates). […] Dox (5 μM) was used as a positive control, while water and cell culture medium were used as negative controls. The compounds were dissolved in water; water was used as a negative control to normalize the data. After the incubation period, MTS reagent (20 μL) was added to each well. The incubation was continued for 2 h. Cell viability was then determined by determination of the fluorescence intensity at 490 nm using a SpectraMax M2 microplate spectrophotometer. The percentage of cell viability was then calculated using the following equation: [(OD value of cells treated with the compound)−(OD value of culture medium)]/[(OD value of control cells)−(OD value of culture medium)]×100% (FIGS. 6-9).

In the case of COc1cccc2c1C(=O)c1c(O)c3c(c(O)c1C2=O)C[C@@](O)(C(=O)CO)C[C@@H]3O[C@H]1C[C@H](N)[C@H](O)[C@H](C)O1 [Dox, doxorubicin, reference compound], the “reduction of cell viability / inhibition of proliferation” value (SK-OV-3 cells [1]) is reported as 35%, the “reduction of cell proliferation” value (MCF-7 cells; 24 h) is reported as 21% and the “reduction of cell proliferation” value (MCF-7 cells; 72 h) is reported as 57%. The “uptake in heart cells (microscopy, words)” value (H9C2 cells [2]) was “significant uptake”, the “uptake in heart cells (confocal microscopy, words)” value (H9C2 cells [3]) was “high uptake” and the LC50 (MDA-MB-231 cells) was 0.3 µg/mL (≈ 0.552 µM). For the same compound, the “reduction of cell survival” value (LLC-PK1 kidney cells; LLC-PK1, 24 h) was 64%, the “reduction of cell survival” value (LLC-PK1 kidney cells; LLC-PK1, 72 h) was 77% and the “reduction of viability of kidney cells” value (LLC-PK1 kidney cells; LLC-PK1, time not stated) was 85%. For the same compound, the “Cell Viability (%) after 24 h” value (LLC-PK1 kidney cells; normal kidney LLC-PK1) was 44 ± 0% and 48 ± 2%, the “Cell Viability (%) after 24 h” value (SK-OV-3 cells [4]; 5 μM) was 73 ± 2% and the “Cell Viability (%) after 72 h” value (SK-OV-3 cells [4]; 5 μM) was 67 ± 3%. For the same compound, the “reduction of cell survival/viability” value (SK-OV-3 cells [4]; 5 μM, 24 h) was 27% and 30%, the “reduction of cell survival/viability” value (SK-OV-3 cells [4]; 5 μM, 72 h) was 33% and the “Cell Viability (%) after 24 h” value (SK-OV-3 cells [4]; 10 μM) was 71 ± 3%. The “Cell Viability (%) after 72 h” value (SK-OV-3 cells [4]; 10 μM) was 64 ± 1% and the cytotoxicity (SK-OV-3 cells [4]; Dox alone 5 and 10 μM) was 27-36%.
